Here are results for two molecules from US6864247B2, “Therapeutic agents for glomerulosclerosis” (priority 1999, dated 2005).

In data set [1] the test system is rat model of anti-Thy 1 antibody-induced nephritis. Put plainly: Renal histology (glomerular cell count, glomerulosclerosis index, glomerular volume) in rat model of anti-Thy 1 antibody-induced nephritis. The format is in vivo. As to conditions: 0.4 μg/kg intravenously every two days from the day after OX-7, day 7; for glomerular cell count: FIG. 1; for glomerular volume: FIG. 3; for glomerulosclerosis index: PAM stained samples, FIG. 2. From the text:
The pharmacological effect of 22-oxa-1α,25-dihydroxyvitamin D3 used as an active ingredient in the present invention can be evaluated on a rat model of a anti-Thy 1 antibody-induced nephritis characterized by showing increased mesangial cell proliferation and mesangial matrix production after administration of an anti-Thy 1 antibody. The pharmacological effect of test compounds can be evaluated by administering an anti-Thy 1 antibody to such a rat model followed by the test compounds, collecting renal tissue at an appropriate time and determining the glomerular cell count or glomerulosclerosis index or determining the expression of collagen by a standard method such as an immunohistochemical technique.
(§1) An anti-Thy 1 antibody (OX-7 purchased from CEDARLANE, Ontario, Canada) was administered into the tail vein of 6-week-old male Wistar rats at 1 mg/kg to induce anti-Thy 1 nephritis. Next day after OX-7 administration, 22-oxa-1α,25-dihydroxyvitamin D3 was intravenously administered at 0.4 μg/kg every two days, and on day 7 after administration, serum, urine and renal tissue were collected.
(§2) For comparison, 1α,25-dihydroxyvitamin D3 was administered in the same manner instead of 22-oxa-1α,25-dihydroxyvitamin D3. Rats not treated with the anti-Thy 1 antibody were used as normal controls. Rats treated with the anti-Thy 1 antibody alone without any vitamin D derivative were used as disease controls.
In the renal tissue, the glomerular cell count, glomerulosclerosis index and glomerular volume were determined (FIGS. 1, 2 and 3). The “glomerular cell count” was determined by counting every cell in every measurable glomerulus on hematoxylin-eosin stained samples. The “glomerulosclerosis index” was evaluated on PAM (periodic acid-methenamine-silver) stained samples according to the method of Raji et al. The “glomerular volume” was determined by using NIH image to calculate the volume of glomeruli read by an image analyzer.

Data set [2] shares this test system. Put plainly: Urinary albumin by ELISA in anti-Thy 1 nephritis rat. The format is in vivo. The conditions noted are these: 0.4 μg/kg intravenously every two days; day 7; FIG. 13. On the procedure:
as §1, §2
In addition, serum calcium (Ca) was determined with an autoanalyzer (AUTOANALYZER, HITACHI 7170, Tokyo, Japan) and urinary albumin (uALB) was determined with an ELISA kit NEPHRAT II (EXOCELL, INC) (FIGS. 12 and 13).
For orientation: ELISA stands for enzyme-linked immunosorbent assay.

The subject of another data set is human mesangial cells. The conditions noted are these: literature report; cited from earlier work.
For the next data set, the system named is type I collagen (ColI). Put plainly: Immunohistological examination of type I collagen expression in the mesangium, anti-Thy 1 nephritis rat. The format is in vivo. The conditions noted are these: 0.4 μg/kg intravenously every two days; day 7; immunohistochemistry. The protocol: as §1, §2
(§3) In the renal tissue, the expression of type I collagen (ColI) and type IV collagen (ColIV) in the mesangium was immunohistologically examined (FIGS. 4-11). Staining was performed on 4 μm sections using an ABC Elite peroxidase staining kit (Vector Lab., Burlingame, Calif., U.S.A.) according to the manufacturer's instructions. The primary antibodies used were a guinea pig anti-rat type I collagen antibody (Boehringer Ingelheim, Co., Ltd., Ingelheim, Germany) and a rabbit anti-rat type IV collagen antibody (Boehringer Ingelheim, Co., Ltd., Ingelheim, Germany).

Another data set concerns type IV collagen (ColIV). In words: Immunohistological examination of type IV collagen expression in the mesangium, anti-Thy 1 nephritis rat. The format is in vivo. The conditions noted are these: 0.4 μg/kg intravenously every two days; day 7; immunohistochemistry. On the procedure:
as §1, §2, §3

For data set [3] the following is noted: described in Japanese Patent No. 2854600; cited from earlier work.
For data set [4] the following is noted: literature report; cited from earlier work.

Take `C=C1/C(=C\C=C2/CCC[C@]3(C)[C@@H]([C@H](C)CCCC(C)(C)O)CC[C@@H]23)C[C@@H](O)C[C@@H]1O` [1α,25-dihydroxyvitamin D3, reference compound]: in data set [1], the glomerular cell count entry is listed as “significantly suppressed”, the glomerular volume result is “no effect” and the glomerulosclerosis index result is given as “significantly suppressed”. The “uALB levels (urinary albumin)” value in data set [2] was “significantly suppressed”. The “antiproliferative effect on human mesangial cells” value in the data set with human mesangial cells is “antiproliferative effect”. Besides, the “expression of ColI in the mesangium” value in the data set with type I collagen (ColI) is reported as “clearly inhibited”. In the data set on type IV collagen (ColIV), the “expression of ColIV in the mesangium” value is “clearly inhibited”.

As to `C=C1/C(=C\C=C2/CCC[C@]3(C)[C@@H]([C@H](C)OCCC(C)(C)O)CC[C@@H]23)C[C@@H](O)C[C@@H]1O` [22-oxa-1α,25-dihydroxyvitamin D3, 1α,3β-dihydroxy-20α-(3-hydroxy-3-methylbutyloxy)-9,10-seco-5,7,10 (19)-pregnatriene], in data set [1], the glomerular cell count entry is given as “significantly suppressed”, the glomerular volume result is listed as “no effect” and the glomerulosclerosis index entry was “significantly suppressed”. Besides, the urinary protein excretion result in data set [3] is reported as “inhibits”. Moreover, the “uALB levels (urinary albumin)” value in data set [2] is listed as “significantly suppressed”. In the data set on type I collagen (ColI), the “expression of ColI in the mesangium” value is listed as “clearly inhibited”. For the same molecule, in the data set on type IV collagen (ColIV), the “expression of ColIV in the mesangium” value was “clearly inhibited”. Besides, in data set [4], the differentiation-inducing effect entry is “show a differentiation-inducing effect” and the hypercalcemia entry is on record as “without causing hypercalcemia”.
